Results as given in PubChem BioAssay AID1963826 (Molecular Pharmacology Branch, DTP, NCI, 2024).
Several values for one entry are separate records, joined by “and”; a condition that tells them apart may be missing. Equal entries are not always repeated.

Tested on: 926638-142-R-J1-PDC complex spheroid viability
Test: Anticancer human tumor 926638-142-R-J1-PDC patient-derived endometrial carcinoma cell line growth inhibition [POLQ]
Settings: for viability, T/C: stronger effect = lower value
Experimental: Multicellular complex tumor spheroid response to Polymerase (POL) inhibitors (novobiocin, ART-558, RP6685) in combination with a variety of drugs and investigational agents in selected tumor cell lines
The POL inhibitors (novobiocin, ART-558, and RP6685) were evaluated both individually and in combination with standard of care and investigational anticancer small molecules within a complex spheroid model of solid tumors. . Complex spheroids include a stromal component modeled by human endothelial cells (HUVEC) and fibroblasts modeled by human mesenchymal stem cells (MSCs). The concentration ranges selected for each drug and investigational agent were based upon clinically achievable concentrations if the clinical Cmax of the agent was known.
Compounds. The drugs and investigational agents: novobiocin (NSC847541), ART-558 (NSC835418), RP-6685 (NSC848927), peposertib (NSC802822), ceralasertib (NSC780249), elimusertib (NSC800525), camonsertib (NSC841442), AZD-1390 (NSC803789), olaparib (NSC753686), talazoparib (NSC767125), rucaparib (NSC756644), sotorasib (NSC818433), MRTX-1133 (NSC836407), SN-38 (NSC673596), topotecan (NSC609699), epotoside (NSC141540), doxorubicin (NSC123127), gemcitabine (NSC613327), 5-fluorouracil (NSC19893), paclitaxel (NSC125973), vemurafenib (NSC761431), MSA-2 (NSC828583), SN-011 (NSC837082), adavosertib (NSC754352), prexasertib (NSC758257), carboplatin (NSC241240) and oxaliplatin (NSC266046), were obtained from the National Cancer Institute (NCI) Developmental Therapeutics Program Chemical Repository (21). The FDA-approved anticancer drug set is available from the Developmental Therapeutics Program at https://dtp.cancer.gov/organization/dscb/obtaining/. […] The stock solutions were prepared in dimethyl sulfoxide (DMSO, Sigma-Aldrich, St. Louis, MO, cat. D2650), except for the platinum compounds which were prepared in saline (Quality Biological, Gaithersburg, MD, cat. 114-055-101), at 800-fold the tested concentration and stored at -70 degrees C prior to their use. All drugs and investigational agents were tested over a range starting from a high concentration at or near the clinical Cmax and decreasing in half-log increments. If the clinical Cmax for an agent had not been determined, the highest concentration tested was 10 microM, except for SN-38, which was tested at a high concentration of 1 microM.
Cell Culture. All cells were maintained in an incubator at 37 degrees C and 5% CO2 with 95% humidity. The PDC lines were cultured according to standard operating procedures established by the NCI PDMR (https://pdmr.cancer.gov). Table 3 of the manuscript, lists the cell lines along with the number of the three cell types plated to form the mct-spheroids and media for tumor cell growth. After thawing, all PDC lines, except 997537-175-T-J1-PDC and 415267-285-R-J2-PDC, were cultured in Matrigel-coated flasks prepared with a working solution of 1X Ham's F-12 nutrient mix, without supplementation (Thermo Fisher Scientific, cat. 11765054), 100 U/mL penicillin-streptomycin (Thermo Fisher Scientific, cat. 15140122), and 2.5% Matrigel (Corning Inc., Corning, NY, cat. 354248) for the first three passages. The two PDC lines 997537-175-T-J1-PDC and 415267-285-R-J2-PDC were cultured on uncoated flasks. The 857933-349-R-J2-PDC line was cultured in 6C/Colon 1B media containing advanced DMEM/F-12 (Thermo Fisher Scientific, cat. 12634028), 10 mM HEPES (Thermo Fisher Scientific, cat. 15630080), 1X GlutaMAX supplement (Thermo Fisher Scientific, cat. 35050061), 0.1 mg/mL primocin (InvivoGen, San Diego, CA, cat. ant-pm-2), 10% defined fetal bovine serum, heat inactivated (HyClone Laboratories Inc., Logan, UT, cat. SH30070.03HI), 50% L-WRN conditioned media (ATCC, cat. CRL-3276), 1.25 mM N-Acetyl-L-cysteine (Sigma-Aldrich, cat. A9165), 10 mM nicotinamide (Sigma-Aldrich, cat. N0636), 1X B-27 supplement (Thermo Fisher Scientific, cat. 17504044), 1X N-2 supplement (Thermo Fisher Scientific, cat. […]

[1] = compound alone, run of 01/08/2024
[2] = compound alone, run of 01/19/2024
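Also: spheroids exposed to drugs for one week before readout.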
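For viability, T/C in this document: percent viability relative to DMSO vehicle control wells set as 100%.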

Row | Compound | viability, T/C (compound 0.0316 µM) | viability, T/C (compound 0.1 µM) | viability, T/C (compound 0.316 µM) | viability, T/C (compound 1 µM) | viability, T/C (compound 3.16 µM) | viability, T/C (compound 10 µM) | IC50 (curve of compound) | IC50 [1] [µM] | viability, T/C (compound 0.00316 µM) | viability, T/C (compound 0.01 µM) | IC50 [2] [µM] | viability, T/C (compound 0.000316 µM) | viability, T/C (compound 0.001 µM)
1 | CNCc1ccc(-c2[nH]c3cc(F)cc4c3c2CCNC4=O)cc1 | 93.7% and 109% and 101% | 89.6% and 97.2% and 79.2% | 92.8% (2×) and 87.7% | 77.7% and 97.3% and 82.6% | 86.7% and 87.1% and 95.7% | 78% and 80.2% and 84.1% | > 10 µM | – | – | – | – | – | –
2 | COC1C(OC(N)=O)C(O)C(Oc2ccc3c(O)c(NC(=O)c4ccc(O)c(CC=C(C)C)c4)c(=O)oc3c2C)OC1(C)C (centres undefined) | – | – | 101% [middle of 13 runs] | – | – | 98.8% [middle of 13 runs] | – | > 10 | – | – | – | – | –
3 | COc1cc(C2c3cc4c(cc3C(OC3OC5COC(C)OC5C(O)C3O)C3COC(=O)C23)OCO4)cc(OC)c1O (centres undefined) | 97.6% and 99% and 86.2% | 79.6% (2×) and 77.2% | 63.6% and 68.3% and 88.5% | 67.9% and 82.5% and 80.7% | 66.8% and 64.7% and 65.7% | 65.4% and 55.2% and 55.3% | > 10 µM | – | – | – | – | – | –
4 | COc1cc2cc(C(=O)CCC(=O)O)sc2cc1OC | 90.1% and 110% and 93.5% | 89.8% and 92.9% and 113% | 98.2% and 105% and 100% | 101% and 109% and 93.2% | 99.7% and 107% and 75.5% | 90.7% and 92.1% and 93.5% | > 10 µM | – | – | – | – | – | –
5 | COc1ccc([C@@H](O)c2cc(-c3ncnc4cc(N5CCOCC5)ccc34)c(F)cc2Cl)nn1 | 89.7% and 92.5% and 103% | 89.2% and 79.2% and 80.3% | 58.8% and 72.4% and 64.8% | 29.3% and 35.7% and 36.9% | 13.2% and 18.7% and 16.1% | 8.76% and 11.7% and 5.8% | 0.466 µM and 0.635 µM and 0.606 µM | – | – | – | – | – | –
6 | COc1cccc(OCCCN)c1-c1cc(Nc2cnc(C#N)cn2)n[nH]1 | 60.4% and 55.2% and 58.4% | 55.1% and 55.9% and 59.1% | 52% and 40.5% and 39.7% | 26.3% and 36.1% and 36.3% | – | – | 0.15 µM and 0.108 µM and 0.13 µM | – | 93.2% and 79.9% and 100% | 77.4% and 82.9% and 82.8% | – | – | –
7 | COc1cccc2c1C(=O)c1c(O)c3c(c(O)c1C2=O)CC(O)(C(=O)CO)CC3OC1CC(N)C(O)C(C)O1 (centres undefined) | 77.2% and 83% and 80.9% | 57.6% and 62.2% and 59.7% | 17.8% and 23.1% and 18.7% | 3.79% and 5.62% and 2.27% | 0.22% and 0.29% and 0.23% | 0.25% and 0.29% and 0.23% | 0.124 µM and 0.143 µM and 0.131 µM | – | – | – | – | – | –
8 | Cc1cccc(N(C)C(=O)C2C(O)CCN2c2nc(C)cc(C(F)(F)F)c2C#N)c1 (centres undefined) | – | 92.5% [middle of 13 runs] | 94.9% [middle of 13 runs] | – | – | – | – | > 10 | – | – | > 10 | – | –
9 | Cn1ncnc1[C@H]1c2n[nH]c(=O)c3cc(F)cc(c23)N[C@@H]1c1ccc(F)cc1 | 86.7% and 70% and 82.3% | 67% and 72.8% and 67.5% | – | – | – | – | > 0.1 µM | – | 76.9% and 94.5% and 82.1% | 89.5% and 92.3% and 85.3% | – | 89.5% and 93.8% and 99.4% | 85.5% and 91.6% and 86%
10 | Nc1ccc(C#CCN(C(=O)Cc2ncc(C(F)(F)F)cc2C(F)(F)F)c2ccc(F)cc2)nn1 | 101% [middle of 13 runs] | 101% [middle of 13 runs] | – | 97.2% [middle of 13 runs] | – | 99.8% [middle of 13 runs] | – | – | – | – | > 10 | – | –
11 | Nc1ccn(C2OC(CO)C(O)C2(F)F)c(=O)n1 (centres undefined) | 69.5% and 96.5% and 88.2% | 66% and 60.7% and 62% | 54.2% and 57.4% and 60.7% | 52.6% and 52.3% and 53.2% | 43.8% and 41.2% and 44% | 30.5% and 27.8% and 24.4% | 1.1 µM and 0.577 µM and 0.974 µM | – | – | – | – | – | –
12 | O=C(Nc1ccc(O)c(NS(=O)(=O)c2ccc(F)cc2)c1)c1ccc(-c2ccccc2)cc1 | 102% and 99.8% and 82.6% | 96.1% and 93.2% and 102% | 94.9% and 98.2% and 96% | 100% and 98.5% and 103% | 78.1% and 104% and 105% | 59.8% and 65.5% and 79.2% | > 10 µM | – | – | – | – | – | –
13 | O=C(c1cc(Cc2n[nH]c(=O)c3ccccc23)ccc1F)N1CCN(C(=O)C2CC2)CC1 | 88.8% and 70.9% and 97% | 85.3% and 91.2% and 85.1% | 86.5% and 105% and 91.6% | 88.9% and 104% and 100% | 85% and 76.3% and 79.9% | 70.9% and 87.5% and 73% | > 10 µM | – | – | – | – | – | –
14 | O=c1[nH]cc(F)c(=O)[nH]1 | 109% and 99.3% and 86.3% | 101% and 89.2% and 108% | 92% (2×) and 87.6% | 89% and 95.6% and 93% | 84.3% and 86% and 78.8% | 75% and 88% and 80% | > 10 µM | – | – | – | – | – | –
